Assay: molar heat capacity at constant pressure
Settings: 101.33 kPa

CC1=CCC2C(=O)OC(=O)C2C1 (stereo not given) [4-methyl-cyclohex-4-ene-1, 2-dicarboxylic acid anhydride]
Settings | molar heat capacity at constant pressure [J/K/mol]
80 K, Crystal | 65.23
80.45 K, Crystal | 63.17
81.95 K, Crystal | 63.26
83.53 K, Crystal | 63.39
85 K, Crystal | 64.37
85.17 K, Crystal | 63.65
86.78 K, Crystal | 64.05
88.38 K, Crystal | 64.45
89.95 K, Crystal | 65.12
90 K, Crystal | 64.76
91.5 K, Crystal | 65.63
93.03 K, Crystal | 66.26
94.54 K, Crystal | 66.83
95 K, Crystal | 66.05
96.03 K, Crystal | 67.49
97.51 K, Crystal | 68.15
98.97 K, Crystal | 68.87
100 K, Crystal | 67.97
100.41 K, Crystal | 69.38
101.84 K, Crystal | 69.93
103.26 K, Crystal | 70.47
104.66 K, Crystal | 71.22
105 K, Crystal | 70.28
106.05 K, Crystal | 71.84
107.43 K, Crystal | 72.36
108.8 K, Crystal | 72.92
110 K, Crystal | 72.81
110.15 K, Crystal | 73.65
111.5 K, Crystal | 74.07
112.83 K, Crystal | 74.66
114.15 K, Crystal | 75.18
115 K, Crystal | 75.44
115.47 K, Crystal | 75.87
116.77 K, Crystal | 76.33
118.07 K, Crystal | 76.91
119.35 K, Crystal | 77.54
120 K, Crystal | 78.06
120.63 K, Crystal | 78.18
121.9 K, Crystal | 78.77
123.16 K, Crystal | 79.3
124.42 K, Crystal | 79.75
125 K, Crystal | 80.62
125.66 K, Crystal | 80.33
126.9 K, Crystal | 80.87
128.14 K, Crystal | 81.35
129.36 K, Crystal | 81.93
130 K, Crystal | 83.08
130.58 K, Crystal | 82.44
131.83 K, Crystal | 82.95
132.96 K, Crystal | 83.78
134.16 K, Crystal | 84.15
135 K, Crystal | 85.43
135.38 K, Crystal | 84.59
136.59 K, Crystal | 85.28
137.72 K, Crystal | 85.94
138.93 K, Crystal | 86.2
140 K, Crystal | 87.67
140.14 K, Crystal | 86.69
141.27 K, Crystal | 86.97
142.48 K, Crystal | 87.65
143.6 K, Crystal | 88.22
144.72 K, Crystal | 88.9
145 K, Crystal | 89.84
145.85 K, Crystal | 89.28
146.98 K, Crystal | 89.92
148.1 K, Crystal | 90.42
149.22 K, Crystal | 90.83
150 K, Crystal | 91.95
150.43 K, Crystal | 91.65
151.55 K, Crystal | 91.97
153.01 K, Crystal | 92.74
154.67 K, Crystal | 93.61
155 K, Crystal | 94.06
156.32 K, Crystal | 94.64
158.04 K, Crystal | 95.26
159.69 K, Crystal | 95.96
160 K, Crystal | 96.19
161.35 K, Crystal | 96.78
162.97 K, Crystal | 97.8
164.62 K, Crystal | 98.83
165 K, Crystal | 98.39
166.25 K, Crystal | 99.65
167.8 K, Crystal | 100.5
169.46 K, Crystal | 101.34
170 K, Crystal | 100.7
171.37 K, Crystal | 102.49
173.61 K, Crystal | 103.54
175 K, Crystal | 103.17
175.85 K, Crystal | 104.8
178.12 K, Crystal | 106.11
180 K, Crystal | 105.81
180.28 K, Crystal | 107.31
182.43 K, Crystal | 108.56
184.61 K, Crystal | 109.77
185 K, Crystal | 108.67
186.68 K, Crystal | 111.17
188.84 K, Crystal | 112.46
190 K, Crystal | 111.75
190.92 K, Crystal | 113.85
192.99 K, Crystal | 115.1
195 K, Crystal | 115.07
195.07 K, Crystal | 116.42
197.13 K, Crystal | 117.72
199.15 K, Crystal | 118.98
200 K, Crystal | 118.62
201.22 K, Crystal | 120.78
203.2 K, Crystal | 121.75
205 K, Crystal | 122.4
205.18 K, Crystal | 123.46
207.19 K, Crystal | 124.73
209.14 K, Crystal | 126.14
210 K, Crystal | 126.39
211.09 K, Crystal | 127.51
213.03 K, Crystal | 128.87
214.97 K, Crystal | 130.45
215 K, Crystal | 130.57
216.9 K, Crystal | 132.32
218.84 K, Crystal | 133.96
220 K, Crystal | 134.91
220.75 K, Crystal | 135.72
222.7 K, Crystal | 137.13
224.58 K, Crystal | 138.58
225 K, Crystal | 139.36
226.56 K, Crystal | 139.98
228.41 K, Crystal | 141.35
230 K, Crystal | 143.9
230.19 K, Crystal | 142.86
232.01 K, Crystal | 144.4
233.86 K, Crystal | 145.93
235 K, Crystal | 148.46
235.74 K, Crystal | 147.41
237.59 K, Crystal | 149.22
239.37 K, Crystal | 150.76
240 K, Crystal | 153.02
241.16 K, Crystal | 152.29
242.94 K, Crystal | 153.83
244.82 K, Crystal | 155.45
245 K, Crystal | 157.52
246.54 K, Crystal | 157.09
248.36 K, Crystal | 158.9
250 K, Crystal | 161.95
250.17 K, Crystal | 160.56
251.99 K, Crystal | 162.22
253.81 K, Crystal | 163.9
255 K, Crystal | 166.26
255.54 K, Crystal | 165.36
257.36 K, Crystal | 167.29
259.09 K, Crystal | 168.63
260 K, Crystal | 170.45
260.82 K, Crystal | 170.5
262.61 K, Crystal | 172.01
264.31 K, Crystal | 173.55
265 K, Crystal | 174.52
266.12 K, Crystal | 175.31
267.82 K, Crystal | 177.02
269.53 K, Crystal | 178.52
270 K, Crystal | 178.5
271.28 K, Crystal | 180.17
273.31 K, Crystal | 181.94
275 K, Crystal | 182.44
275.35 K, Crystal | 183.81
277.03 K, Crystal | 185.45
278.73 K, Crystal | 187.1
280 K, Crystal | 186.41
280.36 K, Crystal | 188.67
282.45 K, Crystal | 190.66
284.97 K, Crystal | 193.03
285 K, Crystal | 190.55
287.46 K, Crystal | 195.7
289.88 K, Crystal | 197.97
290 K, Crystal | 195
292.31 K, Crystal | 200.61
294.67 K, Crystal | 203.16
295 K, Crystal | 199.98
297.1 K, Crystal | 205.53
298.15 K, Crystal | 203.5
299.37 K, Crystal | 207.64
300 K, Crystal | 205.75
301.81 K, Crystal | 210.9
304.16 K, Crystal | 213.44
305 K, Crystal | 212.62
306.51 K, Crystal | 215.82
308.81 K, Crystal | 218.8
310 K, Crystal | 221
311.13 K, Crystal | 221.26
313.43 K, Crystal | 224.91
315 K, Crystal | 231.34
315.72 K, Crystal | 227.54
317.98 K, Crystal | 230.32
320 K, Crystal | 244.2
320.22 K, Crystal | 234.71
322.44 K, Crystal | 240.42
324.6 K, Crystal | 251.25
325 K, Crystal | 260.21
326.7 K, Crystal | 266.66
328.7 K, Crystal | 300.96
330 K, Crystal | 280.12
337.34 K, Liquid | 308.51
339.25 K, Liquid | 307.6
340 K, Liquid | 306.94
341.15 K, Liquid | 306.76
343.06 K, Liquid | 306.95
344.96 K, Liquid | 308.07
345 K, Liquid | 308.18
346.86 K, Liquid | 309.65
348.76 K, Liquid | 311.73
350 K, Liquid | 313.29
350.67 K, Liquid | 314.26
352.57 K, Liquid | 316.99
354.47 K, Liquid | 319.51
355 K, Liquid | 320.24
356.36 K, Liquid | 322.01
358.26 K, Liquid | 324.95
360 K, Liquid | 327.6
360.13 K, Liquid | 327.9
